Measured values: PubChem BioAssay (NCI)
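Interpolation was linear, between the two tested concentrations surrounding the appropriate level; five concentrations were tested over 48 hours in 96-well plates. At the GI50, growth is halved. Definition used: TGI = concentration required for complete inhibition of growth.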

Key:
Experiment in all cases: growth of human tumour cells (NCI), 48 h
[1] = system: HCT-15 colon
[2] = system: SN12C renal
[3] = system: A498 renal
[4] = system: NCI-H226 lung
[5] = system: K-562 leukemia
[6] = system: SF-295 CNS
[7] = system: HS 578T breast
[8] = system: ACHN renal
[9] = system: UO-31 renal
[10] = system: HL-60(TB) leukemia
[11] = system: HT29 colon
[12] = system: SK-MEL-5 melanoma
[13] = system: HOP-92 NSCLC
[14] = system: MCF7 breast
[15] = system: M14 melanoma
[16] = system: IGROV1 ovarian
[17] = system: SW-620 colon
[18] = system: SNB-19 CNS
[19] = system: RXF 393 renal
[20] = system: MDA-MB-435
[21] = system: OVCAR-8 ovarian
[22] = system: UACC-257 melanoma
[23] = system: SK-OV-3 ovarian
[24] = system: UACC-62 melanoma
[25] = system: TK-10 renal
[26] = system: SK-MEL-28 melanoma
[27] = system: SK-MEL-2 melanoma
[28] = system: COLO 205 colon

For `CCCn1cnc2c(c1=N)C(c1ccc(OC)cc1)c1sc3c(C)cccc3c1O2` (stereo unspecified), the GI50 [1] was 0.408 µM, the TGI [1] was 8.68 µM and the GI50 [2] was 0.635 µM. For the same compound, the TGI [2] was 15.5 µM, the GI50 [3] was 0.317 µM and the TGI [3] was 1.03 µM. The GI50 [4] was 0.419 µM, the TGI [4] was 9.6 µM and the GI50 [5] was 0.261 µM. For the same compound, the TGI [5] was 5.52 µM, the GI50 [6] was 0.368 µM and the TGI [6] was 11.6 µM. The GI50 [7] was 0.381 µM, the TGI [7] was 8.87 µM and the GI50 [8] was 0.604 µM. The TGI [8] was 15.2 µM, the GI50 [9] was 0.406 µM and the TGI [9] was 16.5 µM. The GI50 [10] was 0.292 µM, the TGI [10] was 2.68 µM and the GI50 [11] was 0.557 µM. For the same compound, the TGI [11] was 13.7 µM, the GI50 [12] was 0.411 µM and the TGI [12] was 12.5 µM. For the same compound, the GI50 [13] was 1.18 µM, the TGI [13] was 16.6 µM and the GI50 [14] was 0.303 µM. It also gave a TGI [14] of 12.9 µM, a GI50 [15] of 0.401 µM and a TGI [15] of 12.5 µM. For the same compound, the GI50 [16] was 0.472 µM, the TGI [16] was 13.9 µM and the GI50 [17] was 0.517 µM. It also gave a TGI [17] of 17.3 µM, a GI50 [18] of 0.49 µM and a TGI [18] of 16 µM. The GI50 [19] was 0.215 µM, the TGI [19] was 0.603 µM and the GI50 [20] was 0.187 µM. For the same compound, the TGI [20] was 0.484 µM, the GI50 [21] was 0.564 µM and the TGI [21] was 18.8 µM. For the same compound, the GI50 [22] was 12.9 µM, the TGI [22] was 35.5 µM and the GI50 [23] was 0.657 µM. For the same compound, the TGI [23] was 22.2 µM, the GI50 [24] was 0.439 µM and the TGI [24] was 15 µM. The GI50 [25] was 8.09 µM, the TGI [25] was 33.9 µM and the GI50 [26] was 3.34 µM. For the same compound, the TGI [26] was 21.6 µM, the GI50 [27] was 0.719 µM and the TGI [27] was 21 µM. For the same compound, the GI50 [28] was 0.592 µM and the TGI [28] was 4.92 µM.
